Measured values from patent US6846921B2, “Chimeric antisense oligonucleotides and cell transfecting formulations thereof” (Chiron Corporation, priority 1999, dated 2005).
{5'-OMe-dT} = O-methyl thymidine blocking nucleotide (W), phosphodiester-linked; {3'-3'N} = to-3' linked nucleotide blocking group (Z), phosphodiester-linked; d = 2'-deoxy (DNA); m = 2'-O-methyl

Columns and labels:
[1] = tested on: AKT1 mRNA; assay: AKT1 mRNA knockout after transfection of chimeric antisense oligonucleotide; format: cell-based, human; conditions: HT1080 cells
Description: (§1) With the exception of the mTyr oligo (SEQ ID NO: 17-18), which was transfected into B16 melanoma cells, all oligos shown in Table 1 were transfected into HT1080 cells, using “Lipitoid 1” (see below) for transfection, and incubated for 24 hours. The table gives the approximate level of mRNA knockout observed in each case.
The same oligos were also delivered by commercial lipids (Effectene™) and peptoids ((NaeNmpeNmpe)3).
For each transfection mixture, a carrier molecule, preferably a lipitoid or cholesteroid, was prepared to a working concentration of 0.5 mM in water, sonicated to yield a uniform solution, and filtered through a 0.45 μm PVDF membrane. […]
(§2) The level of target mRNA was quantitated using the Roche LightCycler™ real-time PCR machine. […]
(§3) An amplification mixture was prepared by mixing in the following order: 1×PCR buffer II, 3 mM MgCl2, 140 μM each dNTP, 0.175 pmol each oligo, 1:50,000 dil of SYBR® Green, 0.25 mg/ml BSA, 1 unit Taq polymerase, and H2O to 20 μl. (PCR buffer II is available in 10×concentration from Perkin-Elmer (Norwalk, Conn.). In 1×concentration it contains 10 mM Tris pH 8.3 and 50 mM KCl. SYBR® Green (Molecular Probes, Eugene, Oreg.) is a dye which fluoresces when bound to double stranded DNA. As double stranded PCR product is produced during amplification, the fluorescence from SYBR® Green increases.) […]

[2] = tested on: CHK1 mRNA; assay: CHK1 mRNA knockout after transfection of chimeric antisense oligonucleotide; format: cell-based, human
Description: Antisense chimeric oligonucleotides based on the formula above, having sequences directed against AKT1 (SEQ ID NO: 1) or AKT2 (SEQ ID NO: 2), were prepared as described in Example 1. The oligonucleotides also included a 5′-terminal 5′-O-methyl thymidine, as indicated by the formula above. In these oligonucleotides, X^1 and X^2 were seven-base blocks of 2′-O-methyl PO RNA, Y is PS DNA, Z was a 3′-to-3′ linked nucleotide, and W was a 5′-O-methyl thymidine. Both Z and W were linked to the respective X blocks via phosphodiester linkages. […] FIGS. 5 and 6 show levels of endogenous AKT1 mRNA in colon cancer cells and HT1080 cells, respectively, transfected with anti-AKT1 chimeric oligonucleotides (SEQ ID NO: 1). […]
as §2, §3

[3] = tested on: CK1E mRNA; assay: CK1E mRNA knockout after transfection of chimeric antisense oligonucleotide; format: cell-based, human; conditions: HT1080 cells, Lipitoid 1 for transfection, incubated 24 hours, approximate level
Description: as §1
(§4) For each transfection mixture, a carrier molecule, preferably a lipitoid or cholesteroid, was prepared to a working concentration of 0.5 mM in water, sonicated to yield a uniform solution, and filtered through a 0.45 μm PVDF membrane. The antisense oligonucleotide was prepared to a working concentration of 100 μM in sterile Millipore water. […]
as §2, §3

[4] = tested on: E1AF mRNA; assay: E1AF mRNA knockout after transfection of chimeric antisense oligonucleotide; format: cell-based, human; conditions: HT1080 cells, Lipitoid 1 for transfection, incubated 24 hours, approximate level
Description: as §1, §4, §2, §3

[5] = tested on: IGFR1 mRNA; assay: IGFR1 mRNA knockout after transfection of chimeric antisense oligonucleotide; format: cell-based, human; conditions: HT1080 cells, Lipitoid 1 for transfection, incubated 24 hours, approximate level
Description: as §1, §4, §2, §3

[6] = tested on: ILK mRNA; assay: ILK mRNA knockout after transfection of chimeric antisense oligonucleotide; format: cell-based, human; conditions: HT1080 cells, Lipitoid 1 for transfection, incubated 24 hours, approximate level
Description: as §1, §4, §2, §3

[7] = tested on: chk1 kinase; assay: chk1 kinase activity after antisense transfection; format: cell-based, human; conditions: hCHK1 antisense, transfected cells
[8] = tested on: G2 cell cycle checkpoint control; assay: chk1 function (G2 cell cycle checkpoint control) after antisense transfection; format: cell-based, human; conditions: hCHK1 antisense, transfected cells
[9] = tested on: Lovo colon cancer cells; assay: 4 day cell proliferation assay after transfection, Lovo; format: cell-based; conditions: 4 day assay, 50-300 nM reverse control PDK1 oligo, compared with Lipitoids 1 and 2
Description: (§5) (Again, reverse control PDK1 chimeric oligonucleotides, expected to be non-active, were used.). […] This effect is not limited to this cell type, and was also observed in proliferation assays of Km12L4 colon cancer cells (FIG. 6) and Colo320DM colon cancer cells (FIG. 7).
(§6) Cells were seeded into 96 well plates at a density of 5000 cells per well. For a 4 day proliferation assay, 5 independent 96 well plates were prepared, one for each day. After overnight incubation, cells were transfected using the procedure described above. On each day of the proliferation assay, all medium was removed from one plate and frozen at −70° C. On day four, all plates were developed with the Quantos™ assay kit (Stratagene, La Jolla, Calif.) which determines the amount of DNA, and thus the number of cells, in each well.

[10] = tested on: Colo320DM colon cancer cells; assay: Cell proliferation assay after transfection, Colo320DM; format: cell-based; conditions: compared with Lipitoids 1 and 2
Description: as §5, §6

[11] = tested on: AKT1 mRNA; assay: AKT1 mRNA knockout in colon cancer cell line (Lovo) with different carriers; format: cell-based; conditions: Lovo cells; delivery of chimeric anti-AKT1 oligo
Description: For each transfection mixture, a carrier molecule, preferably a lipitoid or cholesteroid, was prepared to a working concentration of 0.5 mM in water, sonicated to yield a uniform solution, and filtered through a 0.45 μm PVDF membrane. The antisense oligonucleotide was prepared to a working concentration of 100 μM in sterile Millipore water.
The oligonucleotide was diluted in OptiMEM™ (Gibco/BRL), in a microfuge tube, to 2 μM, or approximately 20 μg oligo/ml of OptiMEM™. In a separate microfuge tube, lipitoid or cholesteroid, typically in the amount of about 1.5-2 nmol lipitoid/μg antisense oligonucleotide, was diluted into the same volume of OptiMEMTm used to dilute the oligonucleotide. The diluted antisense oligonucleotide was immediately added to the diluted lipitoid and mixed by pipetting up and down.
Cells were plated on tissue culture dishes one day in advance of transfection, in growth media with serum, to yield a density at transfection of 60-90%. The oligonucleotide/lipitoid mixture was added to the cells, immediately after mixing, to a final concentration of 100-300 nM antisense oligonucleotide. Cells were incubated with the transfection mixture at 37° C., 5% CO2 for 4-24 hours. After incubation, the transfection mixture was removed and replaced with normal growth media with serum.
as §2

[12] = tested on: human fibrosarcoma (HT1080) cells; assay: Delivery of FITC-labeled chimeric oligonucleotides, fluorescence analysis; format: cell-based
Description: One method of delivery involves the use of transfection agents known as “lipitoids” and “cholesteroids”, described, for example, in co-owned PCT publications WO 98/06437 and WO 99/08711 (Zuckermann et al.), based on U.S. Ser. Nos. 60/023,867, 60/054,743, and 09/132,808, which are hereby incorporated by reference. These lipid-cationic peptoid conjugates are shown in these references to be effective reagents for the delivery of plasmid DNA to cells in vitro. It is shown herein that such compounds efficiently deliver oligonucleotides into a variety of primary and tumor cell lines. The efficiency of delivery was assessed by fluorescence analysis of FITC-labeled oligonucleotides, or by monitoring mRNA levels after transfection of chimeric antisense oligonucleotides, as described further below.
The extent of delivery of FITC-labeled chimeric oligonucleotides into human fibrosarcoma (HT1080) cells was assessed via fluorescence analysis. (All oligonucleotides used in the subsequent studies were chimeric oligonucleotides as described for the studies represented in Table 1.) The sequence of the oligonucleotides was the reverse control of PDK1 (SEQ ID NO: 25, the reverse of SEQ ID NO: 23) so that the effect of the oligonucleotides on the cells would be minimal. The oligonucleotides were transfected via complexation with (a) a commercially available transfection agent, Effectene™, (b) the peptoid (NaeNmpeNmpe)3 (peptoid 1), (c) Lipitoid 1, in a 1:4 charge ratio of oligo to lipitoid, and (d) Lipitoid 1, in a 1:3 charge ratio.

[13] = oligo SEQ ID NO: 25, in comparison to Effectene

1 (CCATAGTGAGGTTGCATCTGGTGCC; antisense; sugars from the 5' end m7 d11 m7, 5' {5'-OMe-dT}, 3' {3'-3'N}, backbone and T or U not given here; 2'-OMe blocks are phosphodiester, DNA gap is phosphorothioate) [compound 1]
mRNA knockout ([1]; AKT1, Lipitoid 1 for transfection, incubated 24 hours, approximate level): >90%

3 (CCCAGAGCCGATGGTCCGATCATGT; antisense; sugars from the 5' end m7 d11 m7, 5' {5'-OMe-dT}, 3' {3'-3'N}, backbone and T or U not given here; 2'-OMe blocks are phosphodiester, DNA gap is phosphorothioate) [compound 3]
mRNA knockout ([2]; CHK1, HT1080 cells, Lipitoid 1 for transfection, incubated 24 hours, approximate level): >90%

6 (AGCGGCAGAAGTTGAGGTATGTTGA; antisense; sugars from the 5' end m7 d11 m7, 5' {5'-OMe-dT}, 3' {3'-3'N}, backbone and T or U not given here; 2'-OMe blocks are phosphodiester, DNA gap is phosphorothioate) [compound 6]
mRNA knockout [3]: >80%

7 (CCTGCCAGTATGAAGTTGGGAAGCG; antisense; sugars from the 5' end m7 d11 m7, 5' {5'-OMe-dT}, 3' {3'-3'N}, backbone and T or U not given here; 2'-OMe blocks are phosphodiester, DNA gap is phosphorothioate) [compound 7]
mRNA knockout [4]: >90%

9 (TCTTCCTCACAGACCTTCGGGCAAG; antisense; sugars from the 5' end m7 d11 m7, 5' {5'-OMe-dT}, 3' {3'-3'N}, backbone and T or U not given here; 2'-OMe blocks are phosphodiester, DNA gap is phosphorothioate) [compound 9]
mRNA knockout [5]: > 80%

11 (GTGTTTGTTCAGGGTTCCATTTCGG; antisense; sugars from the 5' end m7 d11 m7, 5' {5'-OMe-dT}, 3' {3'-3'N}, backbone and T or U not given here; 2'-OMe blocks are phosphodiester, DNA gap is phosphorothioate) [compound 11]
mRNA knockout [6]: >90%

CCATAGTGAGGTTGCATCTGGTGCC (chimeric modifications, further chemistry not given here) [SEQ ID NO: 1, chimeric antisense oligonucleotide directed against AKT1]
reduction in endogenous AKT1 mRNA level (FIG. 3) ([1]; L1-transfected, versus control oligos and delivery by Effectene or peptoid (NaeNmpeNmpe)3): most pronounced reduction

CCCAGAGCCGATGGTCCGATCATGT (sugars from the 5' end m7 d11 m7, 5' {5'-OMe-dT}, 3' {3'-3'N}, backbone and T or U not given here; 2'-OMe blocks are phosphodiester, DNA gap is phosphorothioate) [SEQ ID NO: 3, chimeric antisense oligonucleotide directed against hCHK1]
degradation of endogenous mRNA ([2]; hCHK1 antisense, transfected cells): degradation of endogenous mRNA | chk1 kinase activity [7]: loss of chk1 kinase activity | chk1 function (G2 cell cycle checkpoint control) [8]: loss of chk1 function

Chol-Ahx-(NaeNmpeNmpe)3 [Cholesteroid 2]
proliferation and viability following oligonucleotide transfection (FIG. 5) [9]: significant increase in proliferation and viability | proliferation following oligonucleotide transfection (FIG. 7) [10]: also observed

Chol-β-ala-(NaeNiaNia)3 [Cholesteroid 3]
proliferation and viability following oligonucleotide transfection (FIG. 5) [9]: significant increase in proliferation and viability | proliferation following oligonucleotide transfection (FIG. 7) [10]: also observed

Chol-β-ala-(NaeNmpeNmpe)3 [Cholesteroid 1]
AKT1 mRNA knockout by carrier (FIG. 4) [11]: better AKT1 mRNA knockout than delivery by Lipitoid 1 or Lipitoid 2

DMPE(NaeNmpeNmpe)3 [Lipitoid 1]
delivery effectiveness by charge ratio ([12]; 1:4 charge ratio of oligo to lipitoid versus 1:3): more effective than the 1:3 ratio | nuclear delivery of the oligonucleotide [12, 13]: higher degree of nuclear delivery | transfection efficiency of FITC-labeled oligonucleotide [12, 13]: significantly higher transfection efficiency
